Experimental data published in US9499509B2, “Dihydrochalcone derivatives and their use as antibiotic agents” (UNIVERSITÉ DU QUÉBEC À CHICOUTIMI, priority 2012, dated 2016).
Like-named read-outs stand apart in the source and are kept apart here.

Assays:
[1] = test system: methicillin-resistant Staphylococcus aureus (MRSA) strains; experiment: Antibiotic assay (resazurin, Example 1), MRSA strains; type: cell-based; conditions: for IC50: read-out: IC50
Method in brief: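 Ten MRSA strains isolated from screening swabs (nares, throat, groin pus) of patients at Chicoutimi hospital were tested, with S. aureus wild-type strain ATCC25923 run alongside. Isolates were identified using the Slidex Staph-Kit and API Staph strips. Methicillin resistance was confirmed by PBP2a latex agglutination and by a Kirby-Bauer disk diffusion antibiogram on Muller-Hinton agar at 37° C.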

WS-1 cell lines = experiment: Cytotoxicity assay on WS-1 (Example 1); conditions: Table 5; WS-1, 48 h
Experimental: Cytotoxicity assay. The cytotoxicity assay was performed in 96-well plates (BD Falcon). The WS-1 cell lines were provided by ATCC. The WS-1 was cultured in DMEM+10% fetal calf serum. The cells were plated in a volume of 100 μL at a density of 5000 cells per well and incubated at 37° C.+5% CO2 for 24 h to promote cell adhesion.
The plates were incubated at 37° C.+5% CO2 for 48 h. The cells were then washed with 100 μL of HBSS and 150 μL of a 2% resazurin were added to the wells.
The therapeutic index is the ratio between the toxicity on normal cells, in this case fibroblast, and the toxicity on bacteria.

Corynebacterium jeikeium = experiment: Antibiotic assay (resazurin, Example 1), Corynebacterium jeikeium; type: cell-based; conditions: Coryne. jeikeium 14139
Experimental: (§1) Bacteria Strain. […] The MRSA were obtained as further described below.
(§2) Antibiotic agents. Cyprofloxacin and erythromycin were provided by Sigma-Aldrich. Gentamicin sulfate and vancomycin hydrochloride were provided by Calbiochem.
(§3) Five additional strains were tested: Streptococcus pneumoniae, Streptococcus agalactiae, Streptococcus pyogenes, Enterococcus faecalis and Corynebacterium jeikeium.

Streptococcus agalactiae = experiment: Antibiotic assay (resazurin, Example 1), Streptococcus agalactiae; type: cell-based; conditions: for IC50: read-out: IC50
Experimental: as §1, §2, §3

Streptococcus pyogenes = experiment: Antibiotic assay (resazurin, Example 1), Streptococcus pyogenes; type: cell-based; conditions: for IC50: read-out: IC50
Experimental: as §1, §2, §3

S. aureus = experiment: Antibiotic assay (resazurin, Example 1), S. aureus strains of Table 3; type: cell-based, Staphylococcus aureus; conditions: for IC50: read-out: IC50
Source text: as §1, §2

Enterococcus faecalis = experiment: Antibiotic assay (resazurin, Example 1), Enterococcus faecalis; type: cell-based; conditions: for IC50: read-out: IC50
Experimental: as §1, §2, §3

Streptococcus pneumoniae = experiment: Antibiotic assay (resazurin, Example 1), Streptococcus pneumoniae; type: cell-based; conditions: for IC50: read-out: IC50
Experimental: as §1, §2, §3

S. epidermidis = experiment: Antibiotic assay (resazurin, Example 1), S. epidermidis strains

COc1ccc(CCC(=O)c2c(O)cc(O)c(C/C=C/c3ccc(O)cc3)c2O)cc1 [Compound II]
Minimum Inhibitory Concentration (MIC) ([1]; MRSA 1): (5.34) μM | IC50 ([1]; MRSA 1): 2.5 ± 0.2 µM | Minimum Inhibitory Concentration (MIC) ([1]; MRSA 2): (5.57) μM | IC50 ([1]; MRSA 2): 2.6 ± 0.2 µM | Minimum Inhibitory Concentration (MIC) ([1]; MRSA 3): (5.29) μM | IC50 ([1]; MRSA 3): 2.6 ± 0.2 µM | Minimum Inhibitory Concentration (MIC) ([1]; MRSA 4): (4.61) μM | IC50 ([1]; MRSA 4): 2.4 ± 0.1 µM | Minimum Inhibitory Concentration (MIC) ([1]; MRSA 5): (4.86) μM | IC50 ([1]; MRSA 5): 2.3 ± 0.4 µM | Minimum Inhibitory Concentration (MIC) ([1]; MRSA 6): (5.22) μM | IC50 ([1]; MRSA 6): 2.3 ± 0.2 µM | Minimum Inhibitory Concentration (MIC) ([1]; MRSA 7): (4.34) μM | IC50 ([1]; MRSA 7): 2.5 ± 0.2 µM | Minimum Inhibitory Concentration (MIC) ([1]; MRSA 8): (4.84) μM | IC50 ([1]; MRSA 8): 2.3 ± 0.2 µM | Minimum Inhibitory Concentration (MIC) ([1]; MRSA 9): (5.26) μM | IC50 ([1]; MRSA 9): 2.5 ± 0.2 µM | Minimum Inhibitory Concentration (MIC) ([1]; MRSA 10): (5.07) μM | IC50 ([1]; MRSA 10): 3.2 ± 0.2 µM | WS-1 (toxicity on normal cells, fibroblast) (WS-1 cell lines): 27 ± 4 | Minimum Inhibitory Concentration (MIC) (Corynebacterium jeikeium): (112) μM | Minimum Inhibitory Concentration (MIC) (Streptococcus agalactiae; Strep. agalactiae 14150): (>200) μM | IC50 (Streptococcus agalactiae; Strep. agalactiae 14150): 169 ± 3 µM | Minimum Inhibitory Concentration (MIC) (Streptococcus agalactiae; Strep. agalactiae 14151): (>200) μM | IC50 (Streptococcus agalactiae; Strep. agalactiae 14151): > 200 µM | Minimum Inhibitory Concentration (MIC) (Streptococcus agalactiae; Strep. agalactiae 14153): (>200) μM | IC50 (Streptococcus agalactiae; Strep. agalactiae 14153): > 200 µM | activity against Streptococcus agalactiae strain 14150 (Streptococcus agalactiae; in words): active | Minimum Inhibitory Concentration (MIC) (Streptococcus pyogenes; Strep. pyogenes 14149): (>200) μM | IC50 (Streptococcus pyogenes; Strep. pyogenes 14149): > 200 µM | Minimum Inhibitory Concentration (MIC) (Streptococcus pyogenes; Strep. pyogenes 14152): (>200) μM | IC50 (Streptococcus pyogenes; Strep. pyogenes 14152): 90 ± 7 µM | activity against Streptococcus pyogenes strain 14152 (Streptococcus pyogenes; in words): active | Minimum Inhibitory Concentration (MIC) (S. aureus; S. aureus 14094): (6.2) μM | IC50 (S. aureus; S. aureus 14094): 3.5 ± 0.3 µM | Minimum Inhibitory Concentration (MIC) (S. aureus; S. aureus 14108): (6.81) μM | IC50 (S. aureus; S. aureus 14108): 3.3 ± 0.2 µM | Minimum Inhibitory Concentration (MIC) (S. aureus; S. aureus 14118): (5.05) μM | Minimum Inhibitory Concentration (MIC) (S. aureus; S. aureus 14154): (4.88) μM | IC50 (S. aureus; S. aureus 14154): 2 ± 0.1 µM | Minimum Inhibitory Concentration (MIC) (Enterococcus faecalis; Ent. Faecalis 14078): (>200) μM | IC50 (Enterococcus faecalis; Ent. Faecalis 14078): > 200 µM | Minimum Inhibitory Concentration (MIC) (Enterococcus faecalis; Ent. Faecalis 14115): (>200) μM | IC50 (Enterococcus faecalis; Ent. Faecalis 14115): > 200 µM | activity against Enterococcus faecalis (Enterococcus faecalis; in words): No activity | Minimum Inhibitory Concentration (MIC) (Streptococcus pneumoniae; Strep. pneumoniae 14070): (122) μM | IC50 (Streptococcus pneumoniae; Strep. pneumoniae 14070): 54 ± 4 µM | Minimum Inhibitory Concentration (MIC) (Streptococcus pneumoniae; Strep. pneumoniae 14112): (169) μM | IC50 (Streptococcus pneumoniae; Strep. pneumoniae 14112): 74 ± 6 µM | Minimum Inhibitory Concentration (MIC) (Streptococcus pneumoniae; Strep. pneumoniae 14138): (>200) μM | IC50 (Streptococcus pneumoniae; Strep. pneumoniae 14138): > 200 µM | Minimum Inhibitory Concentration (MIC) (Streptococcus pneumoniae; Strep. pneumoniae 14144): (>200) μM | IC50 (Streptococcus pneumoniae; Strep. pneumoniae 14144): > 200 µM | Minimum Inhibitory Concentration (MIC) (Streptococcus pneumoniae; Strep. pneumoniae 14148): (200) μM | IC50 (Streptococcus pneumoniae; Strep. pneumoniae 14148): 83 ± 7 µM | activity against Streptococcus pneumoniae 14070 strain (Streptococcus pneumoniae; in words): active | activity against Streptococcus pneumoniae strain 14144 (Streptococcus pneumoniae; in words): not active | IC50 (S. epidermidis; S. epidermidis 14069): 5 ± 0.3 µM | Minimum Inhibitory Concentration (MIC) (S. epidermidis; S. epidermidis 14069): (12.7) μM | IC50 (S. epidermidis; S. epidermidis 14085): 4.4 ± 0.3 µM | Minimum Inhibitory Concentration (MIC) (S. epidermidis; S. epidermidis 14085): (14.3) μM | IC50 (S. epidermidis; S. epidermidis 14093): 7 ± 0.3 µM | Minimum Inhibitory Concentration (MIC) (S. epidermidis; S. epidermidis 14093): (11.2) μM | IC50 (S. epidermidis; S. epidermidis 14134): 3.8 ± 0.6 µM | Minimum Inhibitory Concentration (MIC) (S. epidermidis; S. epidermidis 14134): (13.5) μM | IC50 (S. epidermidis; S. epidermidis 14143): 5.8 ± 0.2 µM | Minimum Inhibitory Concentration (MIC) (S. epidermidis; S. epidermidis 14143): (10.9) μM | activity on S. epidermidis compared with ciprofloxacin (S. epidermidis; in words): more active than ciprofloxacin
